Experimental data published in US7902253B2, “Isoflavone derivatives of tectorigenin, the preparation thereof and the antiviral medicine containing the same as an effective constituent” (priority 2003, dated 2011).
Values after ≈ are worked out from the molar mass of the structure shown. Values joined by “and” are separate entries in the source; they are usually repeats but may differ in a detail not shown here. Equal entries are not always repeated. Where two headings read alike, the source gives them in different places.

Columns and labels:
[1] = solubility in water stated in description and preparation examples; format: physicochemical
adenovirus type 3 (ADV3) = format: cell-based
adenovirus type 7 (ADV7) = format: cell-based
[2] = tested on: Coxsackie virus group B (CoxBV); format: cell-based
[3] = tested on: influenza virus type A1 (Flu•V A1); format: cell-based
[4] = tested on: influenza virus type A3 (Flu•V A3); format: cell-based
[5] = tested on: respiratory syncytial virus (RSV); format: cell-based
HSV-1 = format: cell-based
VZV = format: cell-based
coronavirus BJ01 strain = assay: organism not typed; format: cell-based, coronavirus (SARS); conditions: for IC50: Vero C1008, 120 h
Vero-E6 cell = assay: toxicity to Vero-E6 cell (CPE, REED-MUENCH); conditions: five days, CPE index
[6] = solubility test in water (Chinese Pharmacopeia method); conditions: 25° C.±2° C., shaken every five minutes for 30 minutes
Hep-2 cells = assay: cell toxicity test; conditions: Hep-2, all concentrations tested
Z-HL16C cells = assay: cell toxicity test; conditions: all concentrations tested
[7] = clarity of injection after adding glucose; format: physicochemical
[8] = product of the preparation example (salt as made), read-out: solubility in water

Row | SMILES | solubility [1, 8] [µg/mL] | cell pathologic change degree (adenovirus type 3 (ADV3)) | cell pathologic change degree (adenovirus type 7 (ADV7)) | cell pathologic change degree [2] | cell pathologic change degree [3] | cell pathologic change degree [4] | cell pathologic change degree [5] | cell pathologic change degree (HSV-1) | cell pathologic change degree (VZV) | IC50 (coronavirus BJ01 strain) [µg/mL] | TD50 (median toxic concentration) (Vero-E6 cell) [mg/mL] | Solute: water [6] [mg/mL] | further results
1 | COc1c(O)c(CN2CCCCC2)c2occ(-c3ccc(O)cc3)c(=O)c2c1O [Compound (IX)] | < 1000 | 1+ and 3+ | 2+ and 3+ | 1+ and 2+ and 3+ | 2+ | 1+ and 2+ and 3+ | 2+ | 2+ | 1+ and 2+ and 3+ | 125 (≈ 315 µM) | 2.89 | 8 | 
2 | COc1c(O)cc2occ(-c3ccc(O)c(N)c3)c(=O)c2c1O [Compound (VI)] | > 1000 | 1+ and 2+ and 3+ | 2+ and 3+ | 2+ | 2+ | 1+ and 2+ and 3+ | 2+ and 3+ | 1+ and 2+ and 3+ | 2+ and 3+ | 120 (≈ 381 µM) | 3.85 | 8 | 
3 | C=C1CC[C@@H]2[C@](C)(COC(=O)CCC(=O)[O-])[C@H](OC(=O)CCC(=O)[O-])CC[C@@]2(C)[C@@H]1/C=C/C1=CCOC1=O.[K+].[Na+] [Chuanhuning, Potassium Sodium Dehydroandroandrographolide Succinate, reference compound] |  | 2+ and 3+ | 2+ and 3+ | 2+ and 3+ | 2+ and 3+ | 2+ and 3+ | 2+ and 3+ | 1+ and 2+ and 3+ | 1+ and 2+ and 3+ |  |  |  | effect on cytopathogenesis (in words) (adenovirus type 3 (ADV3)): inhibiting effect; effect on cytopathogenesis (in words) (adenovirus type 7 (ADV7)): inhibiting effect; effect on cytopathogenesis (in words) [2]: inhibiting effect; effect on cytopathogenesis (in words) [3]: inhibiting effect; effect on cytopathogenesis (in words) [4]: inhibiting effect; effect on cytopathogenesis (in words) [5]: inhibiting effect; toxic reaction to cells (in words) (Hep-2 cells): no any toxic reaction; toxic reaction to cells (in words) (Z-HL16C cells): no any toxic reaction
4 | COc1c(O)cc2occ(-c3ccc(O)cc3)c(=O)c2c1O [Compound (I), 5,7,4′-trihydroxy-6-methoxyl isoflavone, reference compound] |  |  |  |  |  |  |  |  |  |  |  | 0.1 | 
5 | COc1c(O)c(CN(C)C)c2occ(-c3ccc(O)cc3)c(=O)c2c1O [Compound (X)] | > 2000 | 1+ and 2+ and 3+ | 2+ and 3+ | 1+ and 3+ | 2+ | 1+ and 2+ and 3+ | 2+ and 3+ | 1+ and 2+ and 3+ | 1+ and 2+ | 119 (≈ 332 µM) | 3.95 | 9 | 
6 | COc1c(O)cc2occ(-c3ccc(O)c(S(=O)(=O)[O-])c3)c(=O)c2c1O.[Na+] [Compound (IV), tectorigenin sodium sulfonate] |  |  |  |  |  |  |  |  |  | 97.6 | 4.34 | 67 | solubility ([1]; 60 °C, after heating to 60˜100° C., read-out: water-solubility): 50000 to 60000 µg/mL; solubility ([1]; room temperature, read-out: water-solubility): 20000 µg/mL; clarity of the injection ([7]; 2-15% glucose added, room temperature and low temperature (0° C.-5° C.)): kept clarified; clarity of the injection ([7]; 4% glucose added, room and low (0° C.˜5° C.) temperature): kept clear
7 | COc1c(O)cc2occ(-c3ccc(OCC(=O)[O-])cc3)c(=O)c2c1O.[Na+] [Compound (VII)] | > 2000 | 1+ and 2+ | 2+ and 3+ | 1+ and 2+ and 3+ | 2+ | 1+ and 2+ and 3+ | 2+ and 3+ | 1+ | 1+ and 2+ | 102 | 4.20 | 15 | 
8 | NC(=O)c1ncn([C@@H]2O[C@H](CO)[C@@H](O)[C@H]2O)n1 [Ribavirin, reference compound] |  | 1+ and 2+ and 3+ | 2+ and 3+ | 2+ and 3+ | 1+ and 3+ | 1+ and 3+ | 2+ and 3+ | 1+ and 2+ and 3+ |  |  |  |  | Pathologic change pore/cell pore (coronavirus BJ01 strain): 2/4 and 3/4 and 4/4 and 0/4 and 1/4
9 | COc1c(O)cc2occ(-c3ccc(OCCN(C)C)cc3)c(=O)c2c1O [Compound (VIII)] | > 2000 | 1+ and 2+ and 3+ | 2+ and 3+ | 1+ and 2+ and 3+ | 2+ | 1+ and 2+ and 3+ | 2+ and 3+ | 1+ and 2+ | 2+ | 112 (≈ 302 µM) | 3.45 | 10 | 
